Source: patent US10231957B2, “Histone demethylase inhibitors” (CELGENE QUANTICEL RESEARCH, INC., priority 2014, dated 2019)

Each molecule was assayed on KYSE-150 esophageal carcinoma cell line (assay: In vitro cell-based assay: cellular proliferation via BrdU incorporation). Settings: Homo sapiens; KYSE-150 cells, BrdU incorporation after 168 hr compound incubation.
Protocol: Cell lines tested include the JMJD2C gene amplified cell line KYSE-150. This is a quantitative ELISA assay measuring DNA incorporation of BrdU during S-phase as a direct readout of cellular proliferation.
Assay Principle: This is a colorimetric immunoassay for the quantification of cell proliferation. Cells treated for 168 hours with test compounds are assayed for their ability to go through S-phase as a measure of their proliferative potential.
Assay Method: The human KYSE-150 (SMAD4 mut, TP53 mut) esophageal carcinoma cell line was seeded at 2,000 cells/well on a 96-well tissue culture treated plate. After an overnight incubation, cells were treated with compound in an […] dilution series with final concentrations ranging from 100 μM to 2 nM. Cells were then incubated in the presence of compound for 168 hr. After compound incubation the cells were assayed using a BrdU Cell Proliferation ELISA (Roche). The cells were first incubated with BrdU labeling reagent for 2 hr. After 2 hr, the BrdU incorporated cells were fixed and denatured, probed with an anti-BrdU-Peroxidase antibody for 1.5 hr and washed. Finally, a tetramethylbenzidine peroxidase substrate was added to each well for 15 min followed by a H2SO4 stop solution. The plate was read at 450 nm, and the raw optical density data was transferred into XLFit (IDBS) for IC50 calculation using the formula: fit=(D+((Vmax*(x^n))/((x^n)+(Km^n))))

`COC(=O)c1ccnc2cc(-c3c4cc(Cl)ccc4nn3CCN3CCCC3)[nH]c12` [Example 10d, Methyl 2-{5-chloro-2-[2-(pyrrolidin-1-yl)ethyl]-2H-indazol-3-yl}-1H-pyrrolo[3,2-b]pyridine-7-carboxylate] and `Cn1nc(-c2cc3nccc(C(=O)O)c3[nH]2)c2ccc(F)cc21` [Example 16, 2-(6-Fluoro-1-methyl-1H-indazol-3-yl)-1H-pyrrolo[3,2-b]pyridine-7-carboxylic Acid] cannot be ordered by IC50: over 10 µM for the first, over 10 µM for the second.

In the case of `CN(c1ccccc1)c1ccc2c(-c3cc4nccc(C(=O)O)c4[nH]3)n(C)nc2c1` [Example 11, 2-{2-Methyl-6-[methyl(phenyl)amino]-2H-indazol-3-yl}-1-H-pyrrolo[3,2-b]pyridine-7-carboxylic Acid], the IC50 is reported as at most 0.1 µM.
